Laboratory results reported in US12419307B2, “Mixtures comprising indazole pesticides” (FMC Corporation, priority 2019, dated 2025).

Key:
Assay type in all cases: in vivo
[1] = test system: cotton melon aphid (Aphis gossypii Glover); experiment: Test D: cotton melon aphid control on okra plants, insect mortality after 6 days
Procedure: The analysis of enhanced activity between the mixtures or compositions was determined using Colby's equation. The average % mortality data for the test compounds alone were inserted into the Colby's equation. If the observed (obs) average % mortality was higher than “p”, the expected (exp) % mortality, the mixture or composition had enhanced effects. If the observed average % mortality was equal to or lower than the expected mortality, the mixture or composition either had no enhanced effect. For bioassays where insect feeding damage was evaluated, enhanced activity is identified when the observed plant damage is less than the expected plant damage rating; ratings ranged between 0 (no damage) and 10 (dead plant) and each value was converted to a % plant protection. 100−(Obs Plant Damage*10)
For evaluating control of cotton melon aphid (Aphis gossypii Glover) through contact and/or systemic means, each test unit consisted of a small open container with a 6- to 7-day-old okra plant inside. This was pre-infested by placing on a leaf of the test plant 30 to 40 aphids on a piece of leaf excised from a culture plant (cut-leaf method). The […] moved onto the test plant as the leaf piece desiccated. After pre-infestation, the soil of the test unit was covered with a layer of sand.
Test compounds were formulated and sprayed as described for Test A. The applications were replicated three times. After spraying of the formulated test compounds, each test unit was allowed to dry for 1 hour and then a black, screened cap was placed on top. […]

[2] = test system: Western Flower Thrips (Frankliniella occidentalis Pergande); experiment: Test B: Western Flower Thrips control on bean plants, plant damage rating converted to % plant protection after 7 days
Procedure: (§1) The pest control protection afforded by the mixtures or compositions is not limited, however, to these species. The analysis of enhanced activity between the mixtures or compositions was determined using Colby's equation. The average % mortality data for the test compounds alone were inserted into the Colby's equation. If the observed (obs) average % mortality was higher than “p”, the expected (exp) % mortality, the mixture or composition had enhanced effects. If the observed average % mortality was equal to or lower than the expected mortality, the mixture or composition either had no enhanced effect. For bioassays where insect feeding damage was evaluated, enhanced activity is identified when the observed plant damage is less than the expected plant damage rating; ratings ranged between 0 (no damage) and 10 (dead plant) and each value was converted to a % plant protection. 100−(Obs Plant Damage*10)
Thus, a plant given a plant damage rating of 3 out of 10 is equivalent to 70% plant protection In all of these tests, compounds of Formula I are Compounds 1 (Cpd 1), 2 (Cpd2), and 3 (Cpd3) and compounds of Formula II are compounds 4 (Cpd4) and 5 (Cpd 5).
For evaluating control of the Western Flower Thrips (Frankliniella occidentalis Pergande) through contact and/or systemic means, each test unit consisted of a small open container with a 5- to 7-day-old bean (var. Soleil) plant inside.
Test solutions were formulated and sprayed with 3 replications as described for Test A. After spraying, the test units were allowed to dry for 1 hour, 22 to 27 adult thrips were added to each unit and then a black, screened cap was placed on top. The test units were held for 7 days at 25° C. and 45-55% relative humidity. To evaluate the level of plant protection provided by each treatment, each test unit was then visually assessed for plant damage inflicted by insect feeding and rated 0-10, where 0=undamaged and 10=plant is dead; the results are listed in Tables 3a-g.

[3] = test system: silverleaf whitefly (Bemisia argentifolii Bellows and Perring); experiment: Test A: silverleaf whitefly control on cotton or soybean plants, spray, insect mortality after 13 days; settings: for % Mortality (obs): applied alone
Procedure: as §1
For evaluating control of silverleaf whitefly (Bemisia argentifolii Bellows and Perring) through contact and/or systemic means, each test unit consisted of a small open container with a 12- to 14-day-old cotton plant or 5-7 day old soybean plant inside. This was pre-infested by placing test units into cages containing adult whiteflies so that oviposition on the cotton leaves could occur. The adults were removed from the plants with an air-blast nozzle, and the test units were capped. The test units were then stored 2 to 3 days before spraying.
Test compounds were formulated using a solution containing 10% acetone, 90% water and 300 ppm Activator 90@ Spreader Lo-Foam Formula non-ionic surfactant containing alkylarylpolyoxyethylene, free fatty acids, glycols and 2-propanol (Loveland Industries, Inc.) to provide the desired concentration in ppm. Formulated test solutions were then applied in 1 mL volumes through a SUJ2 atomizer nozzle with ⅛ JJ custom body (Spraying Systems Co.) positioned 1.27 cm (0.5 inches) above the top of each test unit.
The results for all experimental compositions in this test were replicated three times. After spraying of the formulated test composition, each test unit was allowed to dry for 1 hour and the cap removed. The test units were held for 13 days in a growth chamber at 28° C. and 50-70% relative humidity.

[4] = test system: corn planthopper (Peregrinus maidis (Ashmead)); experiment: Test C: corn planthopper control on corn plants, insect mortality after 6 days; settings: for % Mortality (obs): Table 4e
Procedure: as §1
For evaluating control of corn planthopper (Peregrinus maidis (Ashmead)) through contact and/or systemic means, the test unit consisted of a small open container with a 3-4-day-old corn (maize) plant inside. White sand was added to the top of the soil prior to application of the test compound.
Test compounds were formulated and sprayed at 250 and/or 50 ppm and/or 10 ppm. After spraying of the formulated test compound, the test units were allowed to dry for 1 h before they were post-infested with ˜15-20 nymphs (18-to-21-day-old). […]

[5] = test system: fall armyworm (Spodoptera frugiperda (J. E. Smith)); experiment: Test E: fall armyworm control on corn plants, plant damage rating and mortality after 6 days
Procedure: as §1
For evaluating control of fall armyworm (Spodoptera frugiperda (J. E. Smith)) the test unit consisted of a small open container with a 4-5-day-old corn (maize) plant inside. This was pre-infested with 10-15 1-day-old larvae on a piece of insect diet. Test compounds were formulated and sprayed with 3 replications as described for Test A. After spraying of the formulated test compound, the test units were maintained in a growth chamber for 6 days at 25° C. and 70% relative humidity. Plant feeding damage was then visually assessed based on foliage consumed, and larvae were assessed for mortality. Each test unit was then visually assessed for plant damage and rated 0-10, where 0=undamaged and 10=plant is dead; the results are listed in Tables 6d-i.

[6] = test system: Potato Leafhopper (Empoasca fabae Harris); experiment: Test C: Potato Leafhopper control on bean plants, insect mortality after 6 days; settings: read-out: % Mortality (obs)
Procedure: as §1
For evaluating control of Potato Leafhopper (Empoasca fabae Harris) through contact and/or systemic means, each test unit consisted of a small open container with a 5- to 6-day-old Longio bean plant (primary leaves emerged) inside. White sand was added to the top of the soil, and one of the primary leaves was excised prior to application. Test compounds were formulated and sprayed with 3 replications as described for Test A. After spraying, the test units were allowed to dry for 1 hour before they were infested with 5 potato leafhoppers (18- to 21-day-old adults). A black, screened cap was placed on the top of each container. The test units were held for 6 days in a growth chamber at 19-21° C. and 50-70% relative humidity.

[7] = Aphis gossypii, read-out: % Mortality (obs)
[8] = Bemisia argentifolii, read-out: % Mortality (obs)
[9] = Peregrinus maidis, read-out: % Mortality (obs)
[10] = Spodoptera frugiperda, 144 h, read-out: Plant Protection (obs)
[11] = Peregrinus maidis, 96 h, read-out: % Mortality (obs)

Cc1c(COC(=O)[C@@H]2[C@H](/C=C(\Cl)C(F)(F)F)C2(C)C)cccc1-c1ccccc1 (racemic) [Bifenthrin, bifenthrin, reference compound]
mortality at 50 ppm [1, 7]: 28.7% | mortality at 250 ppm [1, 7]: 58.2% | pest or weed control at 50 ppm ([2]; Frankliniella occidentalis, 168 h, Table 3f, 50 ppm, read-out: Plant Protection (obs)): 36.7% | pest or weed control at 250 ppm ([2]; Frankliniella occidentalis, 168 h, Table 3f, 250 ppm, read-out: Plant Protection (obs)): 70% | mortality at 50 ppm [3, 8]: 0% | mortality at 250 ppm [3, 8]: 0%

C/C(=N\C#N)N(C)Cc1ccc(Cl)nc1 [Acetamiprid, acetamiprid, reference compound]
mortality at 0.03 ppm [1, 7]: 21.1% | mortality at 0.06 ppm [1, 7]: 45.1% | Plant Protection (obs) ([2]; Table 3b, applied alone, 5.49 ppm): 30.0% | Plant Protection (obs) ([2]; Table 3b, applied alone, 7.04 ppm): 70.0% | mortality at 2.52 ppm [3, 8]: 6.5% | mortality at 6.88 ppm [3, 8]: 25.4%

CC(C)N1C(=O)N(c2ccccc2)CS/C1=N\C(C)(C)C [Buprofezin, buprofezin, reference compound]
mortality at 0.524 ppm [4, 9]: 83.7% | mortality at 0.984 ppm [4, 9]: 94.6%

CNC(=O)c1cc(Cl)cc(C)c1NC(=O)c1cc(Br)nn1-c1ncccc1Cl [Chlorantraniliprole, chlorantraniliprole, reference compound]
mortality at 0.23 ppm [1, 7]: 21% | mortality at 0.63 ppm [1, 7]: 42.3% | pest or weed control at 2.08 ppm ([2]; Frankliniella occidentalis, 168 h, Table 3e, 2.08 ppm, read-out: Plant Protection (obs)): 63.3% | pest or weed control at 28.7 ppm ([2]; Frankliniella occidentalis, 168 h, Table 3e, 28.7 ppm, read-out: Plant Protection (obs)): 60% | mortality at 0.54 ppm [3, 8]: 0% | mortality at 189.1 ppm [3, 8]: 59.2%

CCOCn1c(-c2ccc(Cl)cc2)c(C#N)c(Br)c1C(F)(F)F [Chlorfenapyr, chlorfenapyr, reference compound]
pest or weed control at 3.7 ppm [5, 10]: 66.7% | pest or weed control at 5 ppm [5, 10]: 53.3%

CCOP(=S)(OCC)Oc1nc(Cl)c(Cl)cc1Cl [Chlorpyrifos, chlorpyrifos, reference compound]
mortality at 0.173 ppm [1, 7]: 17.7% | mortality at 0.624 ppm [1, 7]: 37.9%

N#Cc1nn(-c2c(Cl)cc(C(F)(F)F)cc2Cl)c(N)c1[S+]([O-])C(F)(F)F (centres unmarked) [Fipronil, fipronil, reference compound]
mortality at 0.78 ppm [4, 9]: 65.2% | mortality at 1.197 ppm [4, 9]: 85.5%

N#CCNC(=O)c1cnccc1C(F)(F)F [Flonicamid, flonicamid, reference compound]
% Mortality (obs) ([1]; Table 5k, 0.027 ppm): 24.2% | % Mortality (obs) ([1]; Table 5k, 0.267 ppm): 49.3%

O=C1C=C(N(Cc2ccc(Cl)nc2)CC(F)F)CO1 [Flupyradifurone, 4-[[(6-chloro-3-pyridinyl)methyl](2,2-difluoroethyl)amino]-2(5H)-furanone, reference compound]
mortality at 0.02 ppm [1, 7]: 23.4% | mortality at 0.075 ppm [1, 7]: 48%

O=[N+]([O-])NC1=NCCN1Cc1ccc(Cl)nc1 [Imidacloprid, imidacloprid, reference compound]
mortality at 0.09 ppm [4, 11]: 29.2% | mortality at 0.16 ppm [4, 11]: 20% | mortality at 0.82 ppm [6]: 53.3% | mortality at 2.25 ppm [6]: 40% | mortality at 0.05 ppm [1, 7]: 33.3% | mortality at 0.1 ppm [1, 7]: 6.7% | Plant Protection (obs) ([2]; Table 3c, applied alone, 6.4 ppm): 66.7% | Plant Protection (obs) ([2]; Table 3c, applied alone, 10.9 ppm): 86.7% | mortality at 15.1 ppm [3, 8]: 0% | mortality at 21.15 ppm [3, 8]: 24.7%

COC(=O)N(C(=O)N1CO[C@@]2(C(=O)OC)Cc3cc(Cl)ccc3C2=N1)c1ccc(OC(F)(F)F)cc1 [Indoxacarb, indoxacarb, reference compound]
Plant Protection (obs) ([5]; Table 6e, 0.2 ppm): 70 | Plant Protection (obs) ([5]; Table 6e, 0.5 ppm): 70 | % Mortality (obs) ([1]; Table 5h, 50 ppm): 23.4% | % Mortality (obs) ([1]; Table 5h, 250 ppm): 37.5% | Plant Protection (obs) ([2]; Table 3g, 50 ppm): 10.0 | Plant Protection (obs) ([2]; Table 3g, 250 ppm): 36.7 | % Mortality (obs) ([3]; Table 2g, 50 ppm): 1.2% | % Mortality (obs) ([3]; Table 2g, 250 ppm): 0%

CNC(=O)ON=C(C)SC [Methomyl, methomyl, reference compound]
pest or weed control at 8.5 ppm [5, 10]: 43.3%

COc1cccc(C(=O)NN(C(=O)c2cc(C)cc(C)c2)C(C)(C)C)c1C [Methoxyfenozide, methoxyfenozide, reference compound]
pest or weed control at 2.8 ppm [5, 10]: 36.7%

O=C(NC(=O)c1c(F)cccc1F)Nc1ccc(OC(F)(F)C(F)OC(F)(F)F)c(Cl)c1 (centres unmarked) [Novaluron, novaluron, reference compound]
pest or weed control at 0.21 ppm [5, 10]: 33.3% | pest or weed control at 0.36 ppm [5, 10]: 80%

CC1(C)C(C=C(Cl)Cl)C1C(=O)OCc1cccc(Oc2ccccc2)c1 (centres unmarked) [Permethrin, permethrin, reference compound]
mortality at 0.0004 ppm [1, 7]: 15.6% | mortality at 0.04 ppm [1, 7]: 32.1%

CC(COc1ccc(Oc2ccccc2)cc1)Oc1ccccn1 (centres unmarked) [Pyriproxyfen, pyriproxyfen, reference compound]
mortality at 0.053 ppm [3, 8]: 68%

CCc1nn(C)c(C(=O)NCc2ccc(Oc3ccc(C)cc3)cc2)c1Cl [Tolfenpyrad, tolfenpyrad, reference compound]
mortality at 0.192 ppm [1, 7]: 29% | mortality at 0.753 ppm [1, 7]: 61.9%

emamectin benzoate [reference compound]
Plant Protection (obs) ([5]; Table 6f, 0.03 ppm): 43.3 | Plant Protection (obs) ([5]; Table 6f, 0.06 ppm): 23.3

spinetoram [reference compound]
% Mortality (obs) ([4]; 8.46 ppm): 7.5% | % Mortality (obs) ([4]; 20.79 ppm): 14.1% | % Mortality (obs) ([1]; Table 5f, 50 ppm): 51.2% | % Mortality (obs) ([1]; Table 5f, 250 ppm): 73.9% | % Mortality (obs) ([3]; Table 2h, 5 ppm): 0% | % Mortality (obs) ([3]; Table 2h, 29.5 ppm): 64.4%
